How the values were obtained:
[1] = test system: Granzyme B and IFN-γ; assay: Dose-response of GranzymeB/IFN-γ double positivity in murine CD8+ T-cells, Example 9; format: cell-based, C57BL/6 mice; settings: Mus musculus, T-cell; for Emax: FIG. 4, 5-parameter fit, read-out: maximal response (GzmB/IFN-γ double positive CD8+ T-cells)
Method: A dose-response analysis of compounds B-E in murine CD8+ T-cells was conducted to evaluate the effect of dose on GranzymeB/IFN-γ double positivity.
Compound C, D and E were first dissolved in a small volume of DMSO before diluting to the final desired concentration.
Splenocytes from naïve C57BL/6 mice were stained with CFSE, prepared, cultured, and dosed. Cells were seeded at 2×10^5 cells/well. Negative control was dosed with 10 ng/ml IL-2. After ConA stimulation (10 μg/ml), cells were dosed with log 3 dilution of each compound from 3×10^−9 to 30 µM in triplicates. All wells were dosed with 10 ng/ml of IL-2.
Flow cytometer analysis was performed to assess percent CD8+ T-cells and percent activation by double staining for Granzyme B (GzmB) and IFN-γ as described in Example 7. Concentration versus response curve was fitted to a 4- or 5-parameter log-logistic model using the “dre” package in “R”. Both EC50 and EC90 were obtained by model fitting.

[2] = test system: KLRG-1; assay: Percent KLRG-1+/CD8+ T-cells in splenocytes after a single dose, melanoma murine model; format: in vivo, mice
Method: (§1) The pharmacodynamic (PD) effects of a single IV dose of Compound B in a melanoma murine model were evaluated. B16F10 melanoma cells were grown in RPMI 1640 media supplemented with 10% FBS and antibiotics (penicillin/streptomycin) using T75 flasks. When cells reached 70-80% confluency, they were treated with 3 ml of 0.25% Trypsin/EDTA. Afterward, detached cells were harvested. A single-cell suspension was prepared in PBS. An IV injection of 10^5 cells in mice marked day −3 of the experiment.
(§2) Animals were housed four per cage, and had access to food and water ad libitum. Compound B was dissolved in sterile PBS, and pH was adjusted to approximately 7.5. Sterile PBS served as control.
(§3) Three days after the IV injection of melanoma cells, animals in the baseline group (n=3) were sacrificed and their spleens were collected for KLRG-1, CTLA-4, and PD-1 analysis. At each predetermined time-point (24, 48, and 120 hours after dosing) three animals from each group were sacrificed for splenocyte analysis of KLRG-1, CTLA-4, and PD-1 expression levels, and expression levels were compared to baseline.
(§4) Spleens collected for splenocyte analysis were prepared into a single-cell suspension for cellular phenotyping by flow cytometry. Cells were stained and gated for CD8. Percent KLRG-1+, CTLA-4+, and PD-1+ CD8+ T-cells were evaluated using flow cytometry.
(§5) The PD effects of a single IV dose of Compound C were evaluated in a melanoma murine model conducted as described in Example 10. […] This study also evaluated whether Compound C was pharmacodynamically active orally.
(§6) In a prior study, Compound C was dosed at 1 mg IV QD for seven days. […] A single PO dose was chosen to confirm oral activity of Compound C. Compound C was dissolved in DMSO, and then diluted in sterile PBS. pH was adjusted to approximately 7.5.
(§7) The oral and intravenous PD effects of a single dose of Compound E were evaluated in a melanoma murine model conducted as described in Example 10.
(§8) Compound E was dissolved in DMSO, and then diluted in sterile PBS. pH was adjusted to approximately 7.5.

[3] = test system: murine CD8+ T cells; assay: Murine CD8+ T-cell proliferation (CFSE), Example 6; format: cell-based, C57BL/6 mice; settings: 30 mM, ConA 10 μg/ml
Method: Preparation of test materials: TTA, compound A and compound B were formulated in RPMI media under aseptic conditions. The pH was adjusted to approximately 7.5 before dosing cells.
Tissue culture and dosing: Splenocytes of C57BL/6 mice were stained with CFSE and prepared, cultured, and dosed. Cells were seeded at 1×10^5 cells/well in a 96-well round-bottomed plate.
Controls: Two controls were used. A negative control dosed with 10 ng/ml IL2 was used, and a positive control dosed with 20 μg/ml ConA and 10 ng/ml IL2 was used.
Treatment: After ConA stimulation (10 μg/ml), cells were dosed with 30 mM compound A, B or C with or without 0.1 mM 30:70 PS:DMPC liposomes. All wells were dosed with 10 ng/ml of IL-2.

[4] = test system: PD-1; assay: Percent PD-1+/CD8+ T-cells in splenocytes after a single dose, melanoma murine model; format: in vivo, mice
Method: as §1, §2, §3, §4, §5, §6, §7, §8

[5] = test system: murine CD8+ T-cells; assay: Murine CD8+ T-cell proliferation concentration-response (CFSE), Example 7; format: cell-based, C57BL/6 mice; settings: for CD8+ T-cell proliferation: 0.001-30 mM, absence of PS, low dose ConA; for model estimated EC80, CD8+ T-cell proliferation: in the presence of 0.1 mM PS, log-logistic model; for reversal of suppressive effects of PS on T-cell proliferation: increasing doses, 0.1 mM PS liposomes
Source text: In this study, the effects of increasing doses of compound B and compound C on proliferation (CFSE staining), activation (Granzyme B and IFN-γ), and checkpoint modulation (PD1 and TIM3) of murine CD8+ T-cells in the presence and absence of phosphatidylserine (PS) were explored.
Preparation of test materials: 30:70 PS:DMPC liposomes were synthesized in PBS. […] Compound C was first dissolved in a small volume of DMSO before diluting to the final desired concentration.
Tissue culture and dosing: Splenocytes of C57BL/6 mice were stained with CFSE and prepared, cultured, and dosed. Cells were seeded at 4×10^5 cells/well.
Controls: Two controls were used. A negative control dosed with 10 ng/ml IL-2 was used, and a positive control dosed with 20 μg/ml ConA and 10 ng/ml IL-2 was used.
Treatment: After ConA stimulation (10 μg/ml), cells were dosed with log 3 dilution of compound B or compound C to cover a range from 1×10^−3 to 30 mM in duplicates with or without 0.1 mM PS:DMPC liposomes. All wells were dosed with 10 ng/ml of IL-2.
Flow cytometer: Flow cytometer analysis was performed to assess cell proliferation by CFSE, activation by double staining for Granzyme B (GzmB) and IFN-γ, checkpoint modulation by double staining for PD-1 and TIM3.
Exposure-response analysis: Change from baseline was calculated for each marker as follows:
Concentration versus change was fitted to an appropriate three-, four- or five-parameter log-logistic model using “dre” package in “R.”
The fold change from baseline of CD8+ T-cells proliferation as a function of increasing doses of compound B was calculated using equation 1, where ResponseControl was the proliferation of cells treated with IL-2 alone and Responsetreatment was the proliferation at each dose of compound B. The baseline PS response was calculated using the same equation where Responsetreatment was the proliferation of cells treated with 0.1 mM PS.

[6] = 0.14 mg/mouse IV single dose, 24 h
[7] = 0.14 mg/mouse IV single dose, 48 h
[8] = 0.14 mg/mouse IV single dose, 120 h
[9] = 0.7 mg/mouse IV single dose, 24 h
[10] = 0.7 mg/mouse IV single dose, 48 h
[11] = 0.7 mg/mouse IV single dose, 120 h
[12] = 1.4 mg/mouse IV single dose, 24 h
[13] = 1.4 mg/mouse IV single dose, 48 h
[14] = 1.4 mg/mouse IV single dose, 120 h
[15] = 0.025 mg/mouse IV single dose, 24 h
[16] = 0.1 mg/mouse IV single dose, 24 h
[17] = 0.25 mg/mouse IV single dose, 24 h
[18] = 1 mg/mouse IV single dose, 24 h
[19] = 2.5 mg/mouse po single dose, 24 h
[20] = remaining groups (0.025, 0.1 mg IV, 2.5 mg PO)

With O=C(O)[C@H](O)[C@@H](O)C(=O)OCCCc1ccccc1 [Compound B, (2R,3R)-2,3-dihydroxy-4-oxo-4-(3-phenylpropoxy)butanoic acid] the EC50 ([1]; 4-parameter model) was 9.8 nM, the EC90 ([1]; 4-parameter model) was 950 nM and the EC50 ([1]; 5-parameter model) was 11 nM. For the same compound, the EC90 ([1]; 5-parameter model) was 3000 nM, the Emax [1] was ~60% and the “KLRG-1+/CD8+ T-cells, mean” value [2, 6] was 6.2%. For the same compound, the “KLRG-1+/CD8+ T-cells, mean” value [2, 7] was 4.8%, the “KLRG-1+/CD8+ T-cells, mean” value [2, 8] was 11.4% and the “KLRG-1+/CD8+ T-cells, mean” value [2, 9] was 6.5%. The “KLRG-1+/CD8+ T-cells, mean” value [2, 10] was 3.0%, the “KLRG-1+/CD8+ T-cells, mean” value [2, 11] was 11.7% and the “KLRG-1+/CD8+ T-cells, mean” value [2, 12] was 7.6%. For the same compound, the “KLRG-1+/CD8+ T-cells, mean” value [2, 13] was 2.5%, the “KLRG-1+/CD8+ T-cells, mean” value [2, 14] was 11.3% and the “time of nadir of exhaustion markers after dosing” value ([2]; single dose, KLRG-1, CTLA-4, PD-1) was 48 h. The “percent of CD8+ T-cell proliferation” value ([3]; in absence of PS) was 78.3%, the “PD-1+/CD8+ T-cells, mean” value [4, 6] was 38.6% and the “PD-1+/CD8+ T-cells, mean” value [4, 7] was 32.5%. For the same compound, the “PD-1+/CD8+ T-cells, mean” value [4, 8] was 59.7%, the “PD-1+/CD8+ T-cells, mean” value [4, 9] was 44.5% and the “PD-1+/CD8+ T-cells, mean” value [4, 10] was 26.7%. For the same compound, the “PD-1+/CD8+ T-cells, mean” value [4, 11] was 58.2%, the “reduction in PD-1+/CD8+ T-cell compared to control” value ([4]; 1.2 mg group, day 5) was 41.8% and the “PD-1+/CD8+ T-cells, mean” value [4, 12] was 42.3%. For the same compound, the “PD-1+/CD8+ T-cells, mean” value [4, 13] was 30.4%, the “PD-1+/CD8+ T-cells, mean” value [4, 14] was 34.7% and the “CD8+ T-cell proliferation” value [5] was “robust proliferation”. The “target concentration considered an effective dose” value ([5]; based on Example 7 analysis) was 0.1 mM, the “model estimated EC80, CD8+ T-cell proliferation” value [5] was 139000 nM and the “reversal of suppressive effects of PS on T-cell proliferation” value [5] was “partially reversed”.
Work on O=C(O)[C@H](O)[C@@H](O)C(=O)OCCC(c1ccccc1)c1ccccc1 [Compound C, (2R,3R)-4-(3,3-diphenylpropoxy)-2,3-dihydroxy-4-oxobutanoic acid] yielded an EC50 ([1]; 4-parameter model) of 43 nM, an EC90 ([1]; 4-parameter model) of 29000 nM and an EC50 ([1]; 5-parameter model) of 42 nM. For the same compound, the EC90 ([1]; 5-parameter model) was 28000 nM, the Emax [1] was ~60% and the “KLRG-1+/CD8+ T-cells, mean” value [2, 15] was 4.9%. For the same compound, the “KLRG-1+/CD8+ T-cells, mean” value [2, 16] was 4.1%, the “KLRG-1+/CD8+ T-cells, mean” value [2, 17] was 3.4% and the “KLRG-1+/CD8+ T-cells, mean” value [2, 18] was 3.3%. For the same compound, the oral pharmacodynamic activity ([2]; 2.5 mg PO single dose) was “not orally effective at the tested dose”, the “KLRG-1+/CD8+ T-cells, mean” value [2, 19] was 4.6% and the “decrease in KLRG-1+/CD8+ T-cells compared to baseline” value ([2]; 0.25- and 1-mg IV groups) was “approximately 15%”. For the same compound, the “decrease in KLRG-1+/CD8+ T-cells compared to time match control” value ([2]; 0.25- and 1-mg IV groups) was “approximately 31%”, the “change in KLRG-1+/CD8+ T-cells compared to baseline or control” value [2, 20] was “No meaningful changes” and the “percent of CD8+ T-cell proliferation” value ([3]; in absence of PS) was 84.5%. The “percent of CD8+ T-cell proliferation” value ([3]; in the presence of 0.1 mM PS) was 55.5%, the “PD-1+/CD8+ T-cells, mean” value [4, 15] was 35% and the “PD-1+/CD8+ T-cells, mean” value [4, 16] was 34%. For the same compound, the “PD-1+/CD8+ T-cells, mean” value [4, 17] was 27%, the “PD-1+/CD8+ T-cells, mean” value [4, 18] was 26% and the “PD-1+/CD8+ T-cells, mean” value [4, 19] was 33%. The “decrease in PD-1+/CD8+ T-cells compared to baseline” value ([4]; 0.25- and 1-mg IV groups) was “approximately 20%”, the “decrease in PD-1+/CD8+ T-cells compared to time match control” value ([4]; 0.25- and 1-mg IV groups) was “approximately 30%” and the “change in PD-1+/CD8+ T-cells compared to baseline or control” value [4, 20] was “No meaningful changes”. For the same compound, the “doses at which proliferation overlapped with that in absence of PS” value ([5]; 0.1 mM PS) was “greater than 0.03 mM”, the “CD8+ T-cell proliferation” value [5] was “robust proliferation” and the “model estimated EC80, CD8+ T-cell proliferation” value [5] was 14600 nM. The “reversal of suppressive effects of PS on T-cell proliferation” value [5] was “completely reversed”.

— US20250177340A1, “Tartaric Acid Analogs and Uses Thereof” (Lapix Therapeutics, Inc., priority 2021, published 2025)
